Reference: ChEMBL document CHEMBL4308841, “Synthesis, in vitro antiproliferative activity, and kinase inhibitory effects of pyrazole-containing diarylureas and diarylamides” (Eur J Med Chem, 2018)

Assays:
MOLT-4 [1] = test: Growth inhibition of human MOLT4 cells incubated for 48 hrs by sulforhodamine B assay; assay type: functional, cell-based; conditions: MOLT-4, 48 h
NCI-H322M = test: Growth inhibition of human NCI-H322M cells incubated for 48 hrs by sulforhodamine B assay; assay type: functional, cell-based
SK-MEL-2 [2] = test: Growth inhibition of human SK-MEL-2 cells incubated for 48 hrs by sulforhodamine B assay; assay type: functional, cell-based; conditions: SK-MEL-2, 48 h
OVCAR-5 = test: Growth inhibition of human OVCAR5 cells incubated for 48 hrs by sulforhodamine B assay; assay type: functional, cell-based; conditions: OVCAR-5, 48 h
786-0 [3] = test: Growth inhibition of human 786-0 cells incubated for 48 hrs by sulforhodamine B assay; assay type: functional, cell-based; conditions: 786-0, 48 h
SN12C [4] = test: Growth inhibition of human SN12C cells incubated for 48 hrs by sulforhodamine B assay; assay type: functional, cell-based
HOP-62 = test: Growth inhibition of human HOP62 cells assessed as cell growth at 0.01 uM incubated for 48 hrs by sulforhodamine B assay relative to control; assay type: functional; conditions: HOP-62, 48 h, read-out: Activity
COLO 205 = test: Growth inhibition of human COLO205 cells assessed as cell growth at 0.01 uM incubated for 48 hrs by sulforhodamine B assay relative to control; assay type: functional; conditions: COLO 205, 48 h, read-out: Activity
SF-539 = test: Growth inhibition of human SF539 cells assessed as cell growth at 0.01 uM incubated for 48 hrs by sulforhodamine B assay relative to control; assay type: functional; conditions: SF-539, 48 h, read-out: Activity
SK-MEL-2 [5] = test: Growth inhibition of human SK-MEL-2 cells assessed as cell growth at 0.01 uM incubated for 48 hrs by sulforhodamine B assay relative to control; assay type: functional; conditions: SK-MEL-2, 48 h, read-out: Activity
786-0 [6] = test: Growth inhibition of human 786-0 cells assessed as cell growth at 0.01 uM incubated for 48 hrs by sulforhodamine B assay relative to control; assay type: functional; conditions: 786-0, 48 h, read-out: Activity
RXF 393 [7] = test: Growth inhibition of human RXF393 cells assessed as cell growth at 0.01 uM incubated for 48 hrs by sulforhodamine B assay relative to control; assay type: functional; conditions: RXF 393, 48 h, read-out: Activity
PC-3 [8] = test: Growth inhibition of human PC3 cells assessed as cell growth at 0.01 uM incubated for 48 hrs by sulforhodamine B assay relative to control; assay type: functional; conditions: PC-3, 48 h, read-out: Activity
MOLT-4 [9] = test: Growth inhibition of human MOLT4 cells assessed as cell growth at 0.1 uM incubated for 48 hrs by sulforhodamine B assay relative to control; assay type: functional; conditions: MOLT-4, 48 h, read-out: Activity
SR = test: Growth inhibition of human SR cells assessed as cell growth at 0.1 uM incubated for 48 hrs by sulforhodamine B assay relative to control; assay type: functional; conditions: read-out: Activity
HCT-116 = test: Growth inhibition of human HCT116 cells assessed as cell growth at 0.1 uM incubated for 48 hrs by sulforhodamine B assay relative to control; assay type: functional; conditions: HCT-116, 48 h, read-out: Activity
SNB-19 = test: Growth inhibition of human SNB19 cells assessed as cell growth at 0.1 uM incubated for 48 hrs by sulforhodamine B assay relative to control; assay type: functional; conditions: SNB-19, 48 h, read-out: Activity
UACC-62 = test: Growth inhibition of human UACC62 cells assessed as cell growth at 0.1 uM incubated for 48 hrs by sulforhodamine B assay relative to control; assay type: functional; conditions: UACC-62, 48 h, read-out: Activity
ACHN = test: Growth inhibition of human ACHN cells assessed as cell growth at 0.1 uM incubated for 48 hrs by sulforhodamine B assay relative to control; assay type: functional; conditions: read-out: Activity
RXF 393 [10] = test: Growth inhibition of human RXF393 cells assessed as cell growth at 0.1 uM incubated for 48 hrs by sulforhodamine B assay relative to control; assay type: functional; conditions: RXF 393, 48 h, read-out: Activity
NCI-H460 = test: Growth inhibition of human NCI-H460 cells assessed as cell growth at 1 uM incubated for 48 hrs by sulforhodamine B assay relative to control; assay type: functional; conditions: NCI-H460, 48 h, read-out: Activity
Malme-3M = test: Growth inhibition of human MALME-3M cells assessed as cell growth at 1 uM incubated for 48 hrs by sulforhodamine B assay relative to control; assay type: functional; conditions: read-out: Activity
UACC-257 = test: Growth inhibition of human UACC257 cells assessed as cell growth at 1 uM incubated for 48 hrs by sulforhodamine B assay relative to control; assay type: functional; conditions: UACC-257, 48 h, read-out: Activity
SN12C [11] = test: Growth inhibition of human SN12C cells assessed as cell growth at 1 uM incubated for 48 hrs by sulforhodamine B assay relative to control; assay type: functional; conditions: read-out: Activity
SK-MEL-28 = test: Growth inhibition of human SK-MEL-28 cells assessed as cell growth at 100 uM incubated for 48 hrs by sulforhodamine B assay relative to control; assay type: functional; conditions: SK-MEL-28, 48 h, read-out: Activity
NCI/ADR-RES = test: Growth inhibition of human NCI/ADR-RES cells assessed as cell growth at 100 uM incubated for 48 hrs by sulforhodamine B assay relative to control; assay type: functional; conditions: read-out: Activity
SK-OV-3 = test: Growth inhibition of human SKOV3 cells assessed as cell growth at 100 uM incubated for 48 hrs by sulforhodamine B assay relative to control; assay type: functional; conditions: SK-OV-3, 48 h, read-out: Activity
RXF 393 [12] = test: Growth inhibition of human RXF393 cells assessed as cell growth at 100 uM incubated for 48 hrs by sulforhodamine B assay relative to control; assay type: functional; conditions: RXF 393, 48 h, read-out: Activity
PC-3 [13] = test: Growth inhibition of human PC3 cells assessed as cell growth at 100 uM incubated for 48 hrs by sulforhodamine B assay relative to control; assay type: functional; conditions: PC-3, 48 h, read-out: Activity
[14] = read-out: LC50 (the source's name)
[15] = read-out: pLC50 (the source's name) (converted)

## O=C(Nc1cccc(-n2cc(-c3ccncc3)c(-c3cc(O)cc(Cl)c3)n2)c1)c1cc(C(F)(F)F)cc(C(F)(F)F)c1
MOLT-4 [1]; read-out: GI50
  GI50: 2.38 µM
MOLT-4 [1]; [14]
  CC50: > 100 µM
MOLT-4 [1]; read-out: TGI
  TGI: > 100 µM
MOLT-4 [1]; read-out: pGI50 (converted)
  GI50: 2.4 µM
MOLT-4 [1]; [15]
  CC50: > 100 µM
MOLT-4 [1]; read-out: pTGI (converted)
  TGI: > 100 µM
NCI-H322M; read-out: GI50
  GI50: 7.92 µM
NCI-H322M; [14]
  CC50: > 100 µM
NCI-H322M; read-out: TGI
  TGI: > 100 µM
NCI-H322M; read-out: pGI50 (converted)
  GI50: 7.94 µM
NCI-H322M; [15]
  CC50: > 100 µM
NCI-H322M; read-out: pTGI (converted)
  TGI: > 100 µM
SK-MEL-2 [2]; read-out: GI50
  GI50: 3.28 µM
SK-MEL-2 [2]; [14]
  CC50: > 100 µM
SK-MEL-2 [2]; read-out: TGI
  TGI: 95.1 µM
SK-MEL-2 [2]; read-out: pGI50 (converted)
  GI50: 3.31 µM
SK-MEL-2 [2]; [15]
  CC50: > 100 µM
SK-MEL-2 [2]; read-out: pTGI (converted)
  TGI: 9.55 µM
OVCAR-5; read-out: GI50
  GI50: 8.23 µM
OVCAR-5; [14]
  CC50: > 100 µM
OVCAR-5; read-out: TGI
  TGI: 38.4 µM
OVCAR-5; read-out: pGI50 (converted)
  GI50: 8.32 µM
OVCAR-5; [15]
  CC50: > 100 µM
OVCAR-5; read-out: pTGI (converted)
  TGI: 38 µM
786-0 [3]; read-out: GI50
  GI50: 3.12 µM
786-0 [3]; [14]
  CC50: > 100 µM
786-0 [3]; read-out: TGI
  TGI: 21.1 µM
786-0 [3]; read-out: pGI50 (converted)
  GI50: 3.09 µM
786-0 [3]; [15]
  CC50: > 100 µM
786-0 [3]; read-out: pTGI (converted)
  TGI: 20.9 µM
SN12C [4]; read-out: GI50
  GI50: 4.77 µM
SN12C [4]; read-out: LC50
  LC50: > 100 µM
SN12C [4]; read-out: TGI
  TGI: > 100 µM
SN12C [4]; read-out: pGI50 (converted)
  GI50: 4.79 µM
SN12C [4]; read-out: pLC50 (converted)
  LC50: > 100 µM
SN12C [4]; read-out: pTGI (converted)
  TGI: > 100 µM
HOP-62
  growth at 0.01 µM: 103%
COLO 205
  growth at 0.01 µM: 102%
SF-539
  growth at 0.01 µM: 98%
SK-MEL-2 [5]
  growth at 0.01 µM: 95%
786-0 [6]
  growth at 0.01 µM: 94%
RXF 393 [7]
  growth at 0.01 µM: 96%
PC-3 [8]
  growth at 0.01 µM: 95%
MOLT-4 [9]
  growth at 0.1 µM: 89%
SR
  growth at 0.1 µM: 94%
HCT-116
  growth at 0.1 µM: 100%
SNB-19
  growth at 0.1 µM: 97%
UACC-62
  growth at 0.1 µM: 97%
ACHN
  growth at 0.1 µM: 98%
RXF 393 [10]
  growth at 0.1 µM: 94%
NCI-H460
  growth at 1 µM: 92%
Malme-3M
  growth at 1 µM: 59%
UACC-257
  growth at 1 µM: 92%
SN12C [11]
  growth at 1 µM: 91%
SK-MEL-28
  growth at 100 µM: -2%
NCI/ADR-RES
  growth at 100 µM: 9%
SK-OV-3
  growth at 100 µM: 30%
RXF 393 [12]
  growth at 100 µM: -50%
PC-3 [13]
  growth at 100 µM: -8%

## O=C(Nc1cccc(-n2cc(-c3ccncc3)c(-c3cc(O)cc(Cl)c3)n2)c1)Nc1ccc(Cl)c(Cl)c1
MOLT-4 [1]; read-out: GI50
  GI50: 1.43 µM
MOLT-4 [1]; [14]
  CC50: > 100 µM
MOLT-4 [1]; read-out: TGI
  TGI: 51.8 µM
MOLT-4 [1]; read-out: pGI50 (converted)
  GI50: 1.41 µM
MOLT-4 [1]; [15]
  CC50: > 100 µM
MOLT-4 [1]; read-out: pTGI (converted)
  TGI: 5.13 µM
NCI-H322M; read-out: GI50
  GI50: 1.78 µM
NCI-H322M; [14]
  CC50: > 100 µM
NCI-H322M; read-out: TGI
  TGI: 76.1 µM
NCI-H322M; read-out: pGI50 (converted)
  GI50: 1.78 µM
NCI-H322M; [15]
  CC50: > 100 µM
NCI-H322M; read-out: pTGI (converted)
  TGI: 7.76 µM
SK-MEL-2 [2]; read-out: GI50
  GI50: 1.3 µM
SK-MEL-2 [2]; [14]
  CC50: 9.1 µM
SK-MEL-2 [2]; read-out: TGI
  TGI: 40.4 µM
SK-MEL-2 [2]; read-out: pGI50 (converted)
  GI50: 1.78 µM
SK-MEL-2 [2]; [15]
  CC50: 9.12 µM
SK-MEL-2 [2]; read-out: pTGI (converted)
  TGI: 4.07 µM
OVCAR-5; read-out: GI50
  GI50: 2.14 µM
OVCAR-5; [14]
  CC50: 5.42 µM
OVCAR-5; read-out: TGI
  TGI: 51.6 µM
OVCAR-5; read-out: pGI50 (converted)
  GI50: 2.14 µM
OVCAR-5; [15]
  CC50: 53.7 µM
OVCAR-5; read-out: pTGI (converted)
  TGI: 6.17 µM
786-0 [3]; read-out: GI50
  GI50: 1.48 µM
786-0 [3]; [14]
  CC50: 9.31 µM
786-0 [3]; read-out: TGI
  TGI: 37.1 µM
786-0 [3]; read-out: pGI50 (converted)
  GI50: 1.48 µM
786-0 [3]; [15]
  CC50: 9.33 µM
786-0 [3]; read-out: pTGI (converted)
  TGI: 3.72 µM
SN12C [4]; read-out: GI50
  GI50: 2.78 µM
SN12C [4]; read-out: LC50
  LC50: > 100 µM
SN12C [4]; read-out: TGI
  TGI: 10.1 µM
SN12C [4]; read-out: pGI50 (converted)
  GI50: 2.75 µM
SN12C [4]; read-out: pLC50 (converted)
  LC50: > 100 µM
SN12C [4]; read-out: pTGI (converted)
  TGI: 18.2 µM
HOP-62
  growth at 0.01 µM: 105%
COLO 205
  growth at 0.01 µM: 106%
SF-539
  growth at 0.01 µM: 59%
SK-MEL-2 [5]
  growth at 0.01 µM: 59%
786-0 [6]
  growth at 0.01 µM: 92%
RXF 393 [7]
  growth at 0.01 µM: 93%
PC-3 [8]
  growth at 0.01 µM: 90%
MOLT-4 [9]
  growth at 0.1 µM: 94%
SR
  growth at 0.1 µM: 90%
HCT-116
  growth at 0.1 µM: 102%
SNB-19
  growth at 0.1 µM: 95%
UACC-62
  growth at 0.1 µM: 99%
ACHN
  growth at 0.1 µM: 95%
RXF 393 [10]
  growth at 0.1 µM: 85%
NCI-H460
  growth at 1 µM: 58%
Malme-3M
  growth at 1 µM: 76%
UACC-257
  growth at 1 µM: 92%
SN12C [11]
  growth at 1 µM: 58%
SK-MEL-28
  growth at 100 µM: -52%
NCI/ADR-RES
  growth at 100 µM: 2%
SK-OV-3
  growth at 100 µM: -22%
RXF 393 [12]
  growth at 100 µM: -52%
PC-3 [13]
  growth at 100 µM: -35%
